Data as given in ChEMBL document CHEMBL2069232, “Novel structural insights for imidoselenocarbamates with antitumoral activity related to their ability to generate methylselenol” (Bioorg Med Chem, 2012).
Active and inactive are the calls of the source. The rule behind the calls is not given here. Numbered stars: 1 amine (or outer) side, 2 acyl side, 3 side chain; on linkers, the order of the positions; unused ones are H or OH. Bridge positions count the residues as written; N and C are the ends. Square brackets hold non-standard residues; d marks the D form. Peptide text beside a SMILES is read from it. I, II: the chains in the order shown. Actinocin(1to9) = Cc1c2oc3c(C)ccc(C(=O)[*:2])c3nc-2c(C(=O)[*:1])c(N)c1=O; NMeV = CN[C@H](C(=O)O)C(C)C; Sar = CNCC(=O)O

Experiments:
[1] = system: NCI-H157; experiment: Induction of apoptosis in human NCI-H157 cells at 10 uM incubated for 5 hrs in serum-free medium by annexin V/propidium iodide staining by flow cytometry; format: functional, cell-based
[2] = Induction of methylselenol release in phenol-red free RPMI 1640 medium containing 100 uM DTNB; format: physicochemical
[3] = Induction of methylselenol release in pH 8.0 phosphate buffer containing 100 mM Na2PO4, 1 mM EDTA and 100 uM DTNB; format: physicochemical
[4] = system: NCI-H157; experiment: Induction of apoptosis in human NCI-H157 cells assessed as live cell level at 10 uM incubated for 5 hrs in serum-free medium by annexin V/propidium iodide staining by flow cytometry; format: functional, cell-based
[5] = system: NCI-H157; experiment: Induction of apoptosis in human NCI-H157 cells assessed as damaged cell level at 10 uM incubated for 5 hrs in serum-free medium by annexin V/propidium iodide staining by flow cytometry; format: functional
[6] = system: NCI-H157; experiment: Induction of apoptosis in human NCI-H157 cells assessed as necrotic cell level at 10 uM incubated for 5 hrs in serum-free medium by annexin V/propidium iodide staining by flow cytometry; format: functional
[7] = system: NCI-H157; experiment: Induction of apoptosis in human NCI-H157 cells assessed as apoptotic cell level at 10 uM incubated for 5 hrs in serum-free medium by annexin V/propidium iodide staining by flow cytometry; format: functional

Compound	Activity [1]	t1/2 [2]	t1/2 [3]	Activity [4]	Activity [5]	Activity [6]	Activity [7]
C[Se]/C(=N\C(=O)c1ccccc1)NC(=O)c1ccccc1	inactive	–	–	–	–	–	–
COc1ccc(C(=O)/N=C(\NC(=O)c2ccc(OC)cc2OC)[Se]C)c(OC)c1	inactive	–	–	–	–	–	–
C[Se]/C(=N/C(=O)c1cccnc1Cl)NC(=O)c1cccnc1Cl	Active	4.7 h	40 h	–	–	–	–
CS/C(=N/C(=O)c1cccnc1)NC(=O)c1cccnc1	–	24 h	1333 h	–	–	–	–
C[Se]/C(=N\C(=O)c1ccc(C(F)(F)F)cc1)NC(=O)c1ccc(C(F)(F)F)cc1	inactive	–	–	–	–	–	–
CS/C(=N/C(=O)c1cccnc1Cl)NC(=O)c1cccnc1Cl	–	31 h	917 h	–	–	–	–
C[Se]/C(=N\C(=O)c1ccc(C)cc1)NC(=O)c1ccc(C)cc1	inactive	–	–	–	–	–	–
C[Se]/C(=N/C(C)=O)NC(C)=O	Active	0.82 h	9.2 h	–	–	–	–
C[Se]/C(=N/C(=O)c1cccnc1)NC(=O)c1cccnc1	Active	2.9 h	26 h	Active	28%	5%	11%
Cc1c2oc3c(C)ccc(C(=O)N[C@@H]4C(=O)N[C@H](C(C)C)C(=O)N5CCC[C@H]5C(=O)N(C)CC(=O)N(C)[C@@H](C(C)C)C(=O)O[C@@H]4C)c3nc-2c(C(=O)N[C@@H]2C(=O)N[C@H](C(C)C)C(=O)N3CCC[C@H]3C(=O)N(C)CC(=O)N(C)[C@@H](C(C)C)C(=O)O[C@@H]2C)c(N)c1=O [DACTINOMYCIN] (I: T[dV]P[Sar][NMeV] / II: T[dV]P[Sar][NMeV]; ester I:1-I:C, II:1-II:C; linker I:N-II:N via Actinocin(1to9))	–	–	–	Active	23%	3%	9%
